Assay results: patent EP1222194B1, “7-ACYLAMINO-3-HETEROARYLTHIO-3-CEPHEM CARBOXYLIC ACID ANTIBIOTICS AND PRODRUGS THEREOF” (priority 1999, dated 2001)
≈ marks a conversion by molar mass, not a printed value.

How the values were obtained:
[1] = In vitro stability of compounds in rat serum; type: in vitro ADME; conditions: for degraded at 1 h: % loss after 60 min exposure to rat serum as determined by HPLC, 37 °C; for stability in rat serum (statement in words): compared with other 7-acylamino-3-heteroarylthio-3-cephem carboxylic acids
Protocol: In general, compounds from the class of 7-acylamino-3-heteroarylthio-3-cephem carboxylic acids have higher chemical reactivity and lower stability towards chemical or enzymatic decomposition than most typical cephalosporins. […] Results shown in Table 2 represent percentage loss of the initial amount of cephalosporin compound upon 60 min incubation in rat serum.
Procedure for measuring degree of degradation of cephalosporin compounds in rat serum was as follows:
Fresh control rat serum (heparinized and stored frozen) is preincubated at 37 °C for 15 min in a shaking water bath. pH is measured using test strips. 25 µL of a 2 mg/mL solution cephalosporin compound (in water) of is then added to each matrix to make 1000 µL. Solutions were incubated at 37 °C. 100ul of solution was taken out at time = 0, 15, 30, and 60 min post dose and added 200 µL 4% trichloroacetic acid, vortexed, and centrifuged for 10 min at 14,000 rpm in an Eppendorfmicrocentrifuge. 25 µL of each supernatant was injected onto HPLC. Experiment was repeated using 25 µL of a 0.2 mg/mL cephalosporin compound. Degradation is measured as the percentage of HPLC peak area at time t relative to peak area at time 0.
HPLC conditions: Beckman Ultrasphere C18 column. 5u. 4.6mm x 25cm. 1 mL/min of 95% 0.1 M ammonium acetate, pH 6, 5% ACN going to 75% buffer/organic over 20min. UV monitored at 254 and 280 nm.

E. coli ATCC25992 = assay: Broth microdilution MIC (NCCLS); type: cell-based; conditions: Escherichia coli, Mueller-Hinton Broth, 24 h at 35 °C
Protocol: (§1) Compounds were evaluated for antimicrobial activity against a panel of bacterial strains using a broth microdilution assay performed as recommended by the NCCLS (1). The minimum inhibitory concentration (MIC) was defined as the lowest concentration of drug which prevented the growth of the bacteria. The following 16 organisms constituted the primary panel of evaluation:
(§2) For this primary panel, the assay was performed in Mueller-Hinton Broth (MHB) with a final bacterial inoculum of 5 x 10^5 CFU/mL (from an early-log phase culture) and a final volume of 100 µL. Control drugs, including imipenem, vancomycin, Penicillin G, dicloxacillin (vs. MSSA ATCC29213 only), and new compounds were prepared at a concentration equivalent to 2-fold the desired final concentration. Dilution of compounds were prepared directly in the plates by serial 2-fold dilution using a multichannel pipette. Positive and negative growth control were included in each plate.
(§3) The bacterial inocula were prepared as follows. For each strain one isolated colony was used to inoculate a volume of 8 mL of Mueller-Hinton broth and these cultures were incubated overnight (20h) at 35 °C in a shaking incubator. At the exception of Enterococcus strains, culture were then diluted 1:10 and allowed to grow for an additional one hour at 35 °C in a shaking incubator. The inocula were prepared by diluting the early log-phase (1h) cultures 1:1000 with fresh Mueller-Hinton broth. E. faecium and E. faecalis were prepared by diluting overnight cultures 1:333 and 1:666, respectively, with fresh Mueller-Hinton broth . A volume of 50 µL of the inocula was added to each well. […] The exact inocula were determined by applying […] of 10-fold serial dilution of the bacterial suspensions on TSA. After overnight incubation at 35 °C, colony forming units were manually counted.
(§4) Microtiter plates were incubated during 24 h at 35 °C and were read using a microtiterplate reader (Molecular Devices) at 650 nm as well as by visual observation using a microtiterplate reading mirror.

E. faecium ATCC 35667 = assay: Broth microdilution MIC (NCCLS); type: cell-based; conditions: Enterococcus faecium, ATCC35667, Mueller-Hinton Broth, 24 h at 35 °C
Protocol: as §1, §2, §3, §4

E. faecalis ATCC 29212 = assay: Broth microdilution MIC (NCCLS); type: cell-based; conditions: Enterococcus faecalis, ATCC29212, Mueller-Hinton Broth, 24 h at 35 °C
Protocol: as §1, §2, §3, §4

E. faecalis VanB (Van^R) = assay: Broth microdilution MIC (NCCLS); type: cell-based; conditions: Enterococcus faecalis, Mueller-Hinton Broth, 24 h at 35 °C
Protocol: as §1, §2, §3, §4

For `NCCSCc1ncccc1SC1=C(C(=O)O)N2C(=O)[C@@H](NC(=O)/C(=N\O)c3nc(N)sc3Cl)[C@H]2SC1` [Cmpd 1, (7R)-7-[(Z)-2-(2-amino-5-chlorothiazol-4-yl)-2-(hydroxyimino)acetamido]-3-[2-(2-aminoethylthiomethyl)pyrid-3-ylthio]-3-cephem-4-carboxylic acid], the degraded at 1 h [1] was 9%, the “stability in rat serum (statement in words)” value (shortened to “stability in rat serum”) [1] was “improved stability” and the MIC (E. coli ATCC25992) was 4 mg/L (≈ 6.64 µM). It also gave an MIC (E. faecium ATCC 35667) of 0.5 mg/L (≈ 0.83 µM), an MIC (E. faecalis ATCC 29212) of 0.06 mg/L (≈ 0.0996 µM) and an MIC (E. faecalis VanB (Van^R)) of 0.13 mg/L (≈ 0.216 µM).
In the case of `NCCSCc1ncccc1SC1=C(C(=O)O)N2C(=O)[C@@H](NC(=O)/C(=N\O)c3nsc(N)n3)[C@H]2SC1` [Cmpd 2, (7R)-7-[(Z)-2-(5-amino-1,2,4-thiadiazol-3-yl)-2-(hydroxyimino)acetamido]-3-[2-(2-aminoethylthiomethyl)pyrid-3-ylthio]-3-cephem-4-carboxylic acid], the degraded at 1 h [1] is reported as 2%, the “stability in rat serum” value [1] is reported as “improved stability” and the MIC (E. coli ATCC25992) is reported as 1 mg/L (≈ 1.76 µM). For the same molecule, the MIC (E. faecium ATCC 35667) was 1 mg/L (≈ 1.76 µM), the MIC (E. faecalis ATCC 29212) was 1 mg/L (≈ 1.76 µM) and the MIC (E. faecalis VanB (Van^R)) was 0.5 mg/L (≈ 0.879 µM).
For `N=C(N)NCCSCc1ncccc1SC1=C(C(=O)O)N2C(=O)[C@@H](NC(=O)/C(=N\O)c3nsc(N)n3)[C@H]2SC1` [Cmpd 2-R, (7R)-7-[(Z)-2-(5-amino-1,2,4-thiadiazol-3-yl)-2-(hydroxyimino)acetamido]-3-[2-(2-guanidinoethylthiomethyl)pyrid-3-ylthio]-3-cephem-4-carboxylic acid], the degraded at 1 h [1] was 10%, the “stability in rat serum” value [1] was “improved stability” and the MIC (E. coli ATCC25992) was 1 mg/L (≈ 1.64 µM). The MIC (E. faecium ATCC 35667) was 0.5 mg/L (≈ 0.819 µM) and the MIC (E. faecalis ATCC 29212) was 1 mg/L (≈ 1.64 µM).
With `N=C(N)NCCSCc1ncccc1SC1=C(C(=O)O)N2C(=O)[C@@H](NC(=O)/C(=N\O)c3nc(N)sc3Cl)[C@H]2SC1` [Cmpd 2-S, (7R)-7-[(Z)-2-(2-amino-5-chlorothiazol-4-yl)-2-(hydroxyimino)acetamido]-3-[2-(2-guanidinoethylthiomethyl)pyrid-3-ylthio]-3-cephem-4-carboxylic acid] the degraded at 1 h [1] was 38%, the “stability in rat serum” value [1] was “improved stability” and the MIC (E. coli ATCC25992) was 4 mg/L (≈ 6.21 µM). It also gave an MIC (E. faecium ATCC 35667) of 0.25 mg/L (≈ 0.388 µM), an MIC (E. faecalis ATCC 29212) of 0.06 mg/L (≈ 0.0931 µM) and an MIC (E. faecalis VanB (Van^R)) of 0.06 mg/L (≈ 0.0931 µM).
With `NCCSCc1ccncc1SC1=C(C(=O)O)N2C(=O)[C@@H](NC(=O)/C(=N\O)c3nc(N)sc3Cl)[C@H]2SC1` [Cmpd 3, (7R)-7-[(Z)-2-(2-amino-5-chlorothiazol-4-yl)-2-(hydroxyimino)acetamido]-3-[4-(2-aminoethylthiomethyl)pyrid-3-ylthio]-3-cephem-4-carboxylic acid] the degraded at 1 h [1] was 3%, the “stability in rat serum” value [1] was “improved stability” and the MIC (E. coli ATCC25992) was 4 mg/L (≈ 6.64 µM). For the same molecule, the MIC (E. faecium ATCC 35667) was 1 mg/L (≈ 1.66 µM), the MIC (E. faecalis ATCC 29212) was 0.13 mg/L (≈ 0.216 µM) and the MIC (E. faecalis VanB (Van^R)) was 0.5 mg/L (≈ 0.83 µM).
